One test concerns the target T1, HiBiT-BRM (Homo sapiens, UniProt P51531).
T1 construct: expressed in transfected cells
The test is described as follows: HiBiT-BRM cell-based degradation assay (Nano-Glo HiBiT Lytic Detection). To be noted: HeLa cells expressing HiBiT-BRM, 24 h; for DC50: read-out: BRM HiBit Degradation IC50. The method, boiled down: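 Luminescence from HiBiT–LgBiT complementation in lysates of a stable HiBiT-BRM HeLa line measured after 24 h compound exposure. Degradation expressed as percent relative to DMSO-treated cells and cells given 2 μM of a known BRM/BRG1 degrader.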
In general terms: With HiBiT, luminescence reflects the tagged protein that the partner subunit can reach.

Another test has as its target T2, HiBit-BRG1 (Homo sapiens, UniProt P51532).
T2 construct: expressed in transfected cells
The test is described as follows: HiBit-BRG1 cell-based degradation assay (Nano-Glo HiBiT Lytic Detection). To be noted: HeLa cells expressing HiBit-BRG1 and LgBit, 24 h; for DC50: read-out: BRG1 HiBit Degradation IC50; for Dmax: read-out: BRG1 HiBit Degradation Maximum (%). The method, boiled down:
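HeLa cells stably expressing HiBiT-BRG1 plus LgBit, 5000/well, treated 24 h, then lysed with Nano-Glo HiBiT lytic reagent and luminescence read. % degradation normalised between DMSO (high control) and 2 μM reference BRM/BRG1 degrader (low control).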

We go through 14 compounds from US20230150974A1 (Foghorn Therapeutics Inc., priority 2020, published 2023).

Structures are written as SMILES.

T1 sequence (P51531 whole entry): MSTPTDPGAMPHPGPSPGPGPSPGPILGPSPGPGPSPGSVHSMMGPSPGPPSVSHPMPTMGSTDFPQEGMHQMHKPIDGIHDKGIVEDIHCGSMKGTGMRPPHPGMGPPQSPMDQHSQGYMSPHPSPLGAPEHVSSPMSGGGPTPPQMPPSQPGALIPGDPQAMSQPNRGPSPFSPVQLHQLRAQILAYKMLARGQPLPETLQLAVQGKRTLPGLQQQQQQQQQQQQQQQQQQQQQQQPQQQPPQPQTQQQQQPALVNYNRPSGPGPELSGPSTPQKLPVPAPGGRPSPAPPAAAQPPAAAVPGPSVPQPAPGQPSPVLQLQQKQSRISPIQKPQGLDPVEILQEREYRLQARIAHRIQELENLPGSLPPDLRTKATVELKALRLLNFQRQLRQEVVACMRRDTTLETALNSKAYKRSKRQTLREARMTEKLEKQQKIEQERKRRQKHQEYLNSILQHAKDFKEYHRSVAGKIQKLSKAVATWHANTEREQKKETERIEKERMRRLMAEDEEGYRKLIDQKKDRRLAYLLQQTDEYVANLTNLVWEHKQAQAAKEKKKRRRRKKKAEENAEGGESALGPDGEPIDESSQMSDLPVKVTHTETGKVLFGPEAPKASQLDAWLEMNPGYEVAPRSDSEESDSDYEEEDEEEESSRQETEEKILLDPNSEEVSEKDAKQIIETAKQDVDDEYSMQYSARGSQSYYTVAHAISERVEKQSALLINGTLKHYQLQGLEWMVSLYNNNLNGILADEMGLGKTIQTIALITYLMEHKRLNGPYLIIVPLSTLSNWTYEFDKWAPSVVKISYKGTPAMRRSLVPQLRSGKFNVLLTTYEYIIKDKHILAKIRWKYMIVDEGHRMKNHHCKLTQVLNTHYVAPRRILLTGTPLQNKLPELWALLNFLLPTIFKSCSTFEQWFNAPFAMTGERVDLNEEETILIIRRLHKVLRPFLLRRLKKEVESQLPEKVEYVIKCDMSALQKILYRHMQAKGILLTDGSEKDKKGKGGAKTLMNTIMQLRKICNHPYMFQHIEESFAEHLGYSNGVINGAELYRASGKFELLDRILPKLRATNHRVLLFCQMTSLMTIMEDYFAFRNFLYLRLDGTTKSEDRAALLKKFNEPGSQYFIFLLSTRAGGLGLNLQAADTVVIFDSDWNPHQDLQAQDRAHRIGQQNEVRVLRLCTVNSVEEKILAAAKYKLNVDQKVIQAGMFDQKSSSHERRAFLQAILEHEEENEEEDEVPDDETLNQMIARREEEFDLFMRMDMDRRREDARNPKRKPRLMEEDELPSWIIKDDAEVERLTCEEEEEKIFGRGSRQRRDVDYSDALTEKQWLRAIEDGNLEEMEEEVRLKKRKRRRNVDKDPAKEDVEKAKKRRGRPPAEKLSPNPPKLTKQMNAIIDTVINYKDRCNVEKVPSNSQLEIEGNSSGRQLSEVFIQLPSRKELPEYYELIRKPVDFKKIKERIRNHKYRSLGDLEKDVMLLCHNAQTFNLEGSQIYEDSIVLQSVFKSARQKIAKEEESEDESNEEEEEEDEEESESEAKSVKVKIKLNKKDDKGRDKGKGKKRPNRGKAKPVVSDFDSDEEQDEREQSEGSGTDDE
T2 sequence (P51532 whole entry): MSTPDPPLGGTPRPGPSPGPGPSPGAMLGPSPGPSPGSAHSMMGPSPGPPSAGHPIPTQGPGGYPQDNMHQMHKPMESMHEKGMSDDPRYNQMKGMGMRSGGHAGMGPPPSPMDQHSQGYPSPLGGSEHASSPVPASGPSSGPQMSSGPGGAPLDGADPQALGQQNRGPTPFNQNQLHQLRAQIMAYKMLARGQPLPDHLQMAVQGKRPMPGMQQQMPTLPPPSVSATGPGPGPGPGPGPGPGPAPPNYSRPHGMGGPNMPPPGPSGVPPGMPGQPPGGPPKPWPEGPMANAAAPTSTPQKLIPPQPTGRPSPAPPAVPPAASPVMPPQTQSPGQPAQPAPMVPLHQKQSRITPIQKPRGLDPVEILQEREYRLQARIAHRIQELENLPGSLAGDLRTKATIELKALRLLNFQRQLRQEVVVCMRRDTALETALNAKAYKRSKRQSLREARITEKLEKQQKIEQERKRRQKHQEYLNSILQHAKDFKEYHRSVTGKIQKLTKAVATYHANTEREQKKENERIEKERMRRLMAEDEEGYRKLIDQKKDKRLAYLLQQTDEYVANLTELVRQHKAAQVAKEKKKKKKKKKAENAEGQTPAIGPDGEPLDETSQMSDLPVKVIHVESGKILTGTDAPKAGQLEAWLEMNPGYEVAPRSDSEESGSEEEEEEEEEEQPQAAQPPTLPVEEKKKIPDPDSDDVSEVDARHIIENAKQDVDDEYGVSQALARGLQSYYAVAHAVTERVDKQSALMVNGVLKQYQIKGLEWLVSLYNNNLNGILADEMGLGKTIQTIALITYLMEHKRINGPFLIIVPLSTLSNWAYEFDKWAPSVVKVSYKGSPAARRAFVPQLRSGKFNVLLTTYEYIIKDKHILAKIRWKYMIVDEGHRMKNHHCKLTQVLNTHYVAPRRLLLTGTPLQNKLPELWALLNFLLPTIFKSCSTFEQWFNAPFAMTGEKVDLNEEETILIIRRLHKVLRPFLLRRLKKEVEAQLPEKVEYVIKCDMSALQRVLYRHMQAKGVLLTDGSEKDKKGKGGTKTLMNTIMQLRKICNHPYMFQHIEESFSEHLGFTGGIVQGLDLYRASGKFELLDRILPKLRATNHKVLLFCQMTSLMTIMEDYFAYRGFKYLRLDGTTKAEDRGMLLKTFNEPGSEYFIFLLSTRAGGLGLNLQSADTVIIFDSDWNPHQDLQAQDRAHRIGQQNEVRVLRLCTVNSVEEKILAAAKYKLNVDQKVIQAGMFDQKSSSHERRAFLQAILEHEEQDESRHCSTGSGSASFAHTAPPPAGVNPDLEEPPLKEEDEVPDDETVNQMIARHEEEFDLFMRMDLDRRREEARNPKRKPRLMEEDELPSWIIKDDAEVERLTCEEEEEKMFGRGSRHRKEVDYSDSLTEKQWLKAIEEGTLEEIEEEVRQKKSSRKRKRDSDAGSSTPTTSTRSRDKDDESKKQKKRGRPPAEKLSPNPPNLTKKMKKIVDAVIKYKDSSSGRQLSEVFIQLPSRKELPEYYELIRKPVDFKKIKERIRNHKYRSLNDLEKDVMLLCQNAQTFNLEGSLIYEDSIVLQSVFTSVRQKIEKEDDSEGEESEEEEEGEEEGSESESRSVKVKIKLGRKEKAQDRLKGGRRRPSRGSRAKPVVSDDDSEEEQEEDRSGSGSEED

Turning to `Nc1nnc(-c2ccccc2O)cc1OCCc1ccc(CNC(=O)CCCCCOc2cccc3c2C(=O)N(C2CCC(=O)NC2=O)C3=O)cc1` (stereo not shown) [Compound 63, N-[[4-(2-[[3-amino-6-(2-hydroxyphenyl)pyridazin-4-yl]oxy]ethyl)phenyl]methyl]-6-[[2-(2,6-dioxopiperidin-3-yl)-1,3-dioxoisoindol-4-yl]oxy]hexanamide], at HiBiT-BRM, the “BRM HiBit Degradation Maximum (%)” value is reported as “B (“B” indicates maximum degradation ≥50%)” and the DC50 was over 0.1 µM. At HiBit-BRG1, the DC50 was over 1 µM and the Dmax is under 50%.

Turning to `Nc1nnc(-c2ccccc2O)cc1OCCc1ccc(C(=O)NCCS(=O)(=O)CCNc2cccc3c2C(=O)N(C2CCC(=O)NC2=O)C3=O)cc1` (stereo not shown) [Compound 55, 4-(2-[[3-amino-6-(2-hydroxyphenyl)pyridazin-4-yl]oxy]ethyl)-N-[2-(2-[[2-(2,6-dioxopiperidin-3-yl)-1,3-dioxoisoindol-4-yl]amino]ethanesulfonyl)ethyl]benzamide], at HiBiT-BRM, the “BRM HiBit Degradation Maximum (%)” value was “C (“C” indicates maximum degradation <50%)” and the DC50 was over 1 µM. For the same compound, on HiBit-BRG1, the DC50 was over 1 µM and the Dmax is under 50%.

Turning to `Cc1ncsc1-c1ccc(CNC(=O)[C@@H]2C[C@@H](O)CN2C(=O)[C@@H](NC(=O)CCCCCCCC(=O)NCc2ccc(CCOc3cc(-c4ccccc4O)nnc3N)cc2)C(C)(C)C)cc1` [Compound 33], at HiBiT-BRM, the “BRM HiBit Degradation Maximum (%)” value is “A (“A” indicates maximum degradation ≥75%)” and the DC50 is over 0.1 µM. For the same compound, on HiBit-BRG1, the DC50 was over 0.1 µM and the Dmax was over 50%.

Turning to `Nc1nnc(-c2ccccc2O)cc1OCCc1ccc(C(=O)NCCCCCCCCC(=O)NCc2ccc(S(=O)(=O)Nc3cccc4c(Cl)c[nH]c34)cc2)cc1` [Compound 23, 9-[[4-(2-[[3-amino-6-(2-hydroxyphenyl)pyridazin-4-yl]oxy]ethyl)phenyl]formamido]-N-([4-[(3-chloro-1H-indol-7-yl)sulfamoyl]phenyl]methyl)nonanamide], at HiBiT-BRM, the “BRM HiBit Degradation Maximum (%)” value was “C (“C” indicates maximum degradation <50%)” and the DC50 is over 1 µM. Further, on HiBit-BRG1, the DC50 was over 1 µM and the Dmax is under 50%.

On to `Cc1ncsc1-c1ccc(CNC(=O)[C@@H]2C[C@@H](O)CN2C(=O)[C@@H](NC(=O)CCN2C[C@H]3CN(CCC(=O)NCc4ccc(CCOc5cc(-c6ccccc6O)nnc5N)cc4)C[C@H]3C2)C(C)(C)C)cc1` [Compound 235, (2S,4R)-1-((2S)-2-(3-(5-(3-((4-(2-((3-amino-6-(2-hydroxyphenyl)pyridazin-4-yl)oxy)ethyl)benzyl)amino)-3-oxopropyl)hexahydropyrrolo[3,4-c]pyrrol-2(1H)-yl)propanamido)-3,3-dimethylbutanoyl)-4-hydroxy-N-(4-(4-methylthiazol-5-yl)benzyl)pyrrolidine-2-carboxamide], for which, at HiBiT-BRM, the “BRM HiBit Degradation Maximum (%)” value is “C (“C” indicates maximum degradation <50%)” and the DC50 is over 1 µM. In addition, on HiBit-BRG1, the DC50 is over 1 µM and the Dmax was under 50%.

For `Cc1ncsc1-c1ccc([C@H](C)NC(=O)[C@@H]2C[C@@H](O)CN2C(=O)[C@@H](NC(=O)CCCCN2CCN(CCC(=O)NCc3ccc(CCOc4cc(-c5ccccc5O)nnc4N)cc3)CC2)C(C)(C)C)cc1` [Compound 262, (2S,4R)-1-((S)-2-(5-(4-(3-((4-(2-((3-amino-6-(2-hydroxyphenyl)pyridazin-4-yl)oxy)ethyl)benzyl)amino)-3-oxopropyl)piperazin-1-yl)pentanamido)-3,3-dimethylbutanoyl)-4-hydroxy-N-((S)-1-(4-(4-methylthiazol-5-yl)phenyl)ethyl)pyrrolidine-2-carboxamide], at HiBiT-BRM, the “BRM HiBit Degradation Maximum (%)” value is recorded as “B (“B” indicates maximum degradation ≥50%)” and the DC50 was over 1 µM. Further, at HiBit-BRG1, the DC50 was over 1 µM and the Dmax is under 50%.

As for `Nc1nnc(-c2ccccc2O)cc1OCCc1ccc(C(=O)NCCOCCOCCNc2cccc3c2C(=O)N(C2CCC(=O)NC2=O)C3=O)cc1` (stereo not shown) [Compound 43, 4-(2-[[3-amino-6-(2-hydroxyphenyl)pyridazin-4-yl]oxy]ethyl)-N-[2-[2-(2-[[2-(2,6-dioxopiperidin-3-yl)-1,3-dioxoisoindol-4-yl]amino]ethoxy)ethoxy]ethyl]benzamide], on HiBiT-BRM, the “BRM HiBit Degradation Maximum (%)” value was “C (“C” indicates maximum degradation <50%)” and the DC50 was over 1 µM. At HiBit-BRG1, the DC50 is over 1 µM and the Dmax is under 50%.

As for `Cc1ncsc1-c1ccc([C@H](C)NC(=O)[C@@H]2C[C@@H](O)CN2C(=O)[C@@H](c2cc(OCCN3CC4(C3)CN(C(=O)c3ccc(CCOc5cc(-c6ccccc6O)nnc5N)cc3)C4)no2)C(C)C)cc1` [Compound 208, (2S,4R)-1-[(2R)-2-[3-(2-[6-[4-(2-[[3-amino-6-(2-hydroxyphenyl)pyridazin-4-yl]oxy]ethyl)benzoyl]-2,6-diazaspiro[3.3]heptan-2-yl]ethoxy)-1,2-oxazol-5-yl]-3-methylbutanoyl]-4-hydroxy-N-[(1S)-1-[4-(4-methyl-1,3-thiazol-5-yl)phenyl]ethyl]pyrrolidine-2-carboxamide], on HiBiT-BRM, the “BRM HiBit Degradation Maximum (%)” value is “A (“A” indicates maximum degradation ≥75%)” and the DC50 is over 0.01 µM. Besides, at HiBit-BRG1, the DC50 was over 0.1 µM and the Dmax is over 75%.

Regarding `Cc1ncsc1-c1ccc(CNC(=O)[C@H]2C[C@H](O)CN2C(=O)[C@H](NC(=O)CCCCCNC(=O)c2ccc(CCOc3cc(-c4ccccc4O)nnc3N)cc2)C(C)(C)C)cc1` (stereo in doubt) [Compound 53, (2R,4S)-1-((R)-2-(6-(4-(2-((3-amino-6-(2-hydroxyphenyl)pyridazin-4-yl)oxy)ethyl)benzamido)hexanamido)-3,3-dimethylbutanoyl)-4-hydroxy-N-(4-(4-methylthiazol-5-yl)benzyl)pyrrolidine-2-carboxamide], at HiBiT-BRM, the “BRM HiBit Degradation Maximum (%)” value is given as “C (“C” indicates maximum degradation <50%)” and the DC50 was over 1 µM. Moreover, at HiBit-BRG1, the DC50 was over 1 µM and the Dmax was under 50%.

With `Nc1nnc(-c2ccccc2O)cc1N1CCN(C(=O)C2CC2CNC(=O)COc2cccc3c2C(=O)N(C2CCC(=O)NC2=O)C3=O)CC1` (stereo not shown) [Compound 77, N-[(2-[4-[3-amino-6-(2-hydroxyphenyl)pyridazin-4-yl]piperazine-1-carbonyl]cyclopropyl)methyl]-2-[[2-(2,6-dioxopiperidin-3-yl)-1,3-dioxoisoindol-4-yl]oxy]acetamide], the “BRM HiBit Degradation Maximum (%)” value on HiBiT-BRM is “C (“C” indicates maximum degradation <50%)”. Moreover, the DC50 on HiBiT-BRM and on HiBit-BRG1 was over 1 µM each time.

Turning to `Cc1ncsc1-c1ccc([C@H](C)NC(=O)[C@@H]2C[C@@H](O)CN2C(=O)[C@@H](NC(=O)CCCCCCCCCCN2CCN(Cc3ccc(CCOc4cc(-c5ccccc5O)nnc4N)cc3)CC2)C(C)(C)C)cc1` [Compound 263], on HiBiT-BRM, the “BRM HiBit Degradation Maximum (%)” value is given as “A (“A” indicates maximum degradation ≥75%)” and the DC50 is over 0.01 µM. Moreover, at HiBit-BRG1, the DC50 was over 1 µM and the Dmax is under 50%.

Regarding `Cc1ncsc1-c1ccc(CNC(=O)[C@@H]2C[C@@H](O)CN2C(=O)[C@@H](NC(=O)CCN2CCC(C(=O)NCc3ccc(CCOc4cc(-c5ccccc5O)nnc4N)cc3)CC2)C(C)(C)C)cc1` [Compound 180, N-(4-(2-((3-amino-6-(2-hydroxyphenyl)pyridazin-4-yl)oxy)ethyl)benzyl)-1-(3-(((S)-1-((2S,4R)-4-hydroxy-2-((4-(4-methylthiazol-5-yl)benzyl)carbamoyl)pyrrolidin-1-yl)-3,3-dimethyl-1-oxobutan-2-yl)amino)-3-oxopropyl)piperidine-4-carboxamide], at HiBiT-BRM, the “BRM HiBit Degradation Maximum (%)” value is reported as “B (“B” indicates maximum degradation ≥50%)” and the DC50 is over 1 µM. On HiBit-BRG1, the DC50 was over 1 µM and the Dmax was under 50%.

As to `Cc1ncsc1-c1ccc(CNC(=O)[C@@H]2C[C@@H](O)CN2C(=O)[C@@H](NC(=O)CCN2CC3CN(C(=O)c4ccc(CCOc5cc(-c6ccccc6O)nnc5N)cc4)C3C2)C(C)(C)C)cc1` (stereo partly drawn) [Compound 241, (2S,4R)-1-((2S)-2-(3-(6-(4-(2-((3-amino-6-(2-hydroxyphenyl)pyridazin-4-yl)oxy)ethyl)benzoyl)-3,6-diazabicyclo[3.2.0]heptan-3-yl)propanamido)-3,3-dimethylbutanoyl)-4-hydroxy-N-(4-(4-methylthiazol-5-yl)benzyl)pyrrolidine-2-carboxamide], at HiBiT-BRM, the “BRM HiBit Degradation Maximum (%)” value is given as “C (“C” indicates maximum degradation <50%)” and the DC50 was over 1 µM. Moreover, on HiBit-BRG1, the DC50 is over 1 µM and the Dmax was under 50%.

As for `Cc1ncsc1-c1ccc(CNC(=O)[C@@H]2C[C@@H](O)CN2C(=O)[C@@H](NC(=O)CCCCCCCCCNCc2ccc(CCOc3cc(-c4ccccc4O)nnc3N)cc2)C(C)(C)C)cc1` [Compound 26, (2S,4R)-1-((S)-2-(10-((4-(2-((3-amino-6-(2-hydroxyphenyl)pyridazin-4-yl)oxy)ethyl)benzyl)amino)decanamido)-3,3-dimethylbutanoyl)-4-hydroxy-N-(4-(4-methylthiazol-5-yl)benzyl)pyrrolidine-2-carboxamide], at HiBiT-BRM, the “BRM HiBit Degradation Maximum (%)” value is reported as “A (“A” indicates maximum degradation ≥75%)” and the DC50 was over 0.1 µM. Also, on HiBit-BRG1, the DC50 is over 1 µM and the Dmax is under 50%.
